In assay [1] the target is recombinant human integrin αvβ6 (Homo sapiens (Human), UniProt P06756+P18564). Description: Solid Phase Integrin αvβ6 Binding Assay (Examples B1, B2). The note with it: TGFβ1 LAP ligand, values given in four ranges, read-out: αvβ6 Inhibition IC50 (nM)-range. The method in brief: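 Plates coated with recombinant human αvβ6 (2 μg/mL) compete compound against recombinant TGFβ1 LAP (0.67 μg/mL) in TBS binding buffer with 0.5 mM MnCl2, 2 h at 25 °C. Bound LAP detected with biotin-anti-hLAP and peroxidase-streptavidin; IC50 by four-parameter logistic regression.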

Assay [2] relates to Type I Collagen gene Col1a1 expression. Description: Precision cut lung slices, mice under acute bleomycin exposure (Example B8). Type of assay: cell-based. To be noted: 3 days culture, normalized to DMSO, FIG. 5A. As for the experimental part: Mice (C57BL/6) were administered 3 U/kg of bleomycin (Teva Pharmaceuticals; North Wales, Pa.) on day 0 via oropharyngeal aspiration while under anesthesia. On day 14, precision cut lung slices were obtained. Following euthanization, 2% low gelling temp agarose was injected into the mouse lungs via the trachea. […] The lobes were then subjected to precision slicing to obtain samples for culture using a microtome (Compresstome VF-300-0Z, Precisionary; Greenville, N.C.). Individual slices were distributed in a multiwell culture plate and cultured for 3 days under control (DMSO) and test compound conditions.

Some results are limits rather than exact numbers.

Data on four compounds can be found in US11419869B2, “Dosage forms and regimens for amino acid compounds” (Pliant Therapeutics, Inc., priority 2019, dated 2022).

In general, IC50 refers to the point on the concentration scale where inhibition reaches its midpoint.

Chain of recombinant human integrin αvβ6 (P06756 31-992): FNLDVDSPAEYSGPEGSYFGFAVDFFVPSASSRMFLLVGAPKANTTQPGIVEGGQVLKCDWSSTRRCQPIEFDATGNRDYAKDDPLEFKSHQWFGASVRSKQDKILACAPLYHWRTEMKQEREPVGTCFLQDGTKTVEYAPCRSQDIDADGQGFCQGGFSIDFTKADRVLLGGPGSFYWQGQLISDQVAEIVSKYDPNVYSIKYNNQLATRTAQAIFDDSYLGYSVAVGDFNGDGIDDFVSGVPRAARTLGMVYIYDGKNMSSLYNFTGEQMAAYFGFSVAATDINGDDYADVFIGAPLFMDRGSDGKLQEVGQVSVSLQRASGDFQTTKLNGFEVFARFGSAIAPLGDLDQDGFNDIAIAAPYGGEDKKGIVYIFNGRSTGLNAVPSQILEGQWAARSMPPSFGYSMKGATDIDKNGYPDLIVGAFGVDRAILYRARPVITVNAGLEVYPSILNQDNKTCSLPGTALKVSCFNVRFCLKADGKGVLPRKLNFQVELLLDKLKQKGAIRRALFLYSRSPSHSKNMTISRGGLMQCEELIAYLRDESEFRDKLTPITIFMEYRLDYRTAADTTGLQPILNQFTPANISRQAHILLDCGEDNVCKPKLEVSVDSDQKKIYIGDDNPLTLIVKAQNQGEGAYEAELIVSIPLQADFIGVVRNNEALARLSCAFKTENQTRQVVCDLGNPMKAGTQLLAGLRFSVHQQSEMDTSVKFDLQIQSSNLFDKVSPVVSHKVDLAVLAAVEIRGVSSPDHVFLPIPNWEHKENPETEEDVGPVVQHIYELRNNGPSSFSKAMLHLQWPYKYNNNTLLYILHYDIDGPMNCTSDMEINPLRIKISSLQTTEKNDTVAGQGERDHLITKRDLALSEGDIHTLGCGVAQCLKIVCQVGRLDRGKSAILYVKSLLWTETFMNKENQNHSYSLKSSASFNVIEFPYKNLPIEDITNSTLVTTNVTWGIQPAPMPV
Chain of recombinant human integrin αvβ6 (P18564 22-707): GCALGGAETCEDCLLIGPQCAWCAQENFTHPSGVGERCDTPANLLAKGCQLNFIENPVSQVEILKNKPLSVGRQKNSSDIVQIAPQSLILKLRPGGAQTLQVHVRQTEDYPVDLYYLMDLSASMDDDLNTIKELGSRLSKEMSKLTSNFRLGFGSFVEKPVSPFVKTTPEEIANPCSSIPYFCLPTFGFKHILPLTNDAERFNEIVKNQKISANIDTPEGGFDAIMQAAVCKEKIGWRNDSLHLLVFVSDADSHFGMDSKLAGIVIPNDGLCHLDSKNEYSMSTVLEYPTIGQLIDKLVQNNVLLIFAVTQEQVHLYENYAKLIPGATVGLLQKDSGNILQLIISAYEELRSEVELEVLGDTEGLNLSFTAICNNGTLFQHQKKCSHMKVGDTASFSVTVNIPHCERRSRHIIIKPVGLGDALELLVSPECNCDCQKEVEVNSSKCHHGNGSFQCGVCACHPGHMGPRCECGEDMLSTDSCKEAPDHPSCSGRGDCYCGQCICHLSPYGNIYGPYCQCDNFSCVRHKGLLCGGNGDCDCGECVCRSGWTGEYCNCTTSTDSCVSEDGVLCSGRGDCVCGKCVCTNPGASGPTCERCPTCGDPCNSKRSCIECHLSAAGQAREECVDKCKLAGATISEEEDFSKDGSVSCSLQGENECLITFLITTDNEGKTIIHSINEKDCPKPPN

`O=C(O)[C@H](CCN(CCCCc1ccc2c(n1)NCCC2)CC(F)F)Nc1cc(-c2ccccc2)ncn1` [Compound 142, (S)-4-((2,2-difluoroethyl) (4-(5,6,7,8-tetrahydro-1,8-naphthyridin-2-yl)butyl)amino)-2-((6-phenylpyrimidin-4-yl)amino) butanoic acid]: the IC50 in assay [1] is over 1000 nM.

With `CN(C)C(=O)CN(CCCCc1ccc2c(n1)NCCC2)CC[C@H](Nc1ccnc(C(F)(F)F)n1)C(=O)O` [Compound 145, (S)-4-((2-(dimethylamino)-2-oxoethyl) (4-(5,6,7,8-tetrahydro-1,8-naphthyridin-2-yl)butyl)amino)-2-((2-(trifluoromethyl)pyrimidin-4-yl)amino) butanoic acid], in assay [1], the IC50 was under 50 nM. On to `O=C(O)[C@H](CCN(CCCCc1ccc2c(n1)NCCC2)CC(F)F)Nc1ncc(C2CC2)cn1` [Compound 146, (S)-2-((5-cyclopropylpyrimidin-2-yl)amino)-4-((2,2-difluoroethyl) (4-(5,6,7,8-tetrahydro-1,8-naphthyridin-2-yl)butyl)amino) butanoic acid], for which, in assay [1], the IC50 was over 1000 nM. On to `CC(C)(C)c1cc(Br)cc([C@H](CC(=O)O)NC(=O)CNC(=O)c2cc(O)cc(NC3=NCC(O)CN3)c2)c1` (stereo partly drawn) [second pan-av small molecule inhibitor, (3S)—N-[3-hydroxy-5-[(1,4,5,6-tetrahydro-5-hydroxy-2-pyrimidinyl)amino]benzoyl]glycyl-3-[3-bromo-5-(1,1-dimethylethyl)phenyl]-β-alanine], for which the “Type I Collagen gene Col1a1 expression” value in assay [2] is reported as “reduced Type I Collagen gene Col1a1 expression”.
